Broadly, the IC50 is the concentration that gives 50% inhibition. A low value points to greater potency.

The record followed here is BindingDB's records for doi:10.1074/jbc.M113.514067 (Genentech, 2014).

Chain of Proprotein convertase subtilisin/kexin type 9 (Q8NBP7 31-152 limits assumed): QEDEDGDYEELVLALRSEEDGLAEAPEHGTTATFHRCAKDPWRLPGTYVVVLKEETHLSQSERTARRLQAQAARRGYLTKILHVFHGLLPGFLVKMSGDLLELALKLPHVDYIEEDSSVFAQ
Chain of Proprotein convertase subtilisin/kexin type 9 (Q8NBP7 153-692 limits assumed): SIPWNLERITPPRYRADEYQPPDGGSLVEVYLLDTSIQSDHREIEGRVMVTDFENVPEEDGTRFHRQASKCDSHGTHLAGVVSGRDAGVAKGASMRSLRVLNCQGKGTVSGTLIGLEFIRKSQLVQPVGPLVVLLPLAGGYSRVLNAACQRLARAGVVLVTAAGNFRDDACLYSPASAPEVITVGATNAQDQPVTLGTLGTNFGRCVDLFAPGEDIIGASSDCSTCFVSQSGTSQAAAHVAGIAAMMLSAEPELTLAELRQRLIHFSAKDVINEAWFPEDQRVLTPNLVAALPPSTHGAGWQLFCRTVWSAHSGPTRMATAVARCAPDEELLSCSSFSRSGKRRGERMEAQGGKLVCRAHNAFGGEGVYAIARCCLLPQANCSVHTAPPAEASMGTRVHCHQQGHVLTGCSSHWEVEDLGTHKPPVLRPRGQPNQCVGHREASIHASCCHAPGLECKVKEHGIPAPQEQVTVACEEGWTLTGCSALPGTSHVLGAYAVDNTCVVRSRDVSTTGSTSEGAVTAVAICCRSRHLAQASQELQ

This test has as its target Proprotein convertase subtilisin/kexin type 9 (Homo sapiens, UniProt Q8NBP7). In words: PCSK9 Inhibition Assay. As for the experimental part: For the peptide affinity determinations, biotinylated PCSK9 was immobilized to NeutrAvidin-coated MaxiSorp Immuno-Plates and incubated with a mixture of serially diluted synthetic peptide (Pep2-2 or Pep2 at 0-100 μM) and the correspondingpeptide-displaying phage at the earlier determined subsaturating concentration (see above). After a 1-h incubation in PBT buffer (PBS, 0.5% BSA, 0.05% Tween 20), the plate was washed extensively, and the bound phage was detected by anti-M13-HRP. The data were fitted to a four-parameter equation (KaleidaGraph) to determine the IC50 values. For IC50 measurements of the Pep2-2 derivatives (Fig. 1C) and for the truncated Pep2-8 peptides (Table 1), we used the peptides in a concentration range of 0-250 μM and the Pep2-2-displaying phage at subsaturating concentrations.
The compound `CC(=O)N[C@H](C(=O)N[C@H](C(=O)N[C@@H](Cc1ccccc1)C(=O)N[C@H](C(=O)N[C@@H](CO)C(=O)N[C@@H](Cc1c[nH]c2ccccc12)C(=O)N[C@@H](CCC(=O)O)C(=O)N[C@@H](CCC(=O)O)C(=O)N[C@@H](Cc1ccc(O)cc1)C(=O)N[C@@H](CC(C)C)C(=O)N[C@@H](CC(=O)O)C(=O)N[C@@H](Cc1c[nH]c2ccccc12)C(=O)N[C@H](C(N)=O)C(C)C)[C@@H](C)O)C(C)C)[C@@H](C)O` [TVFTSWEEYLDWV] showed a 50% inhibitory concentration (IC50) of 1.4 µM.
With Ac-TVFTSWEEYL-NH2 [TVFTSWEEYL] the figure was 17.6 µM.
The compound Ac-TVFTSWEEYLL-NH2 [TVFTSWEEYLL] registered a concentration for half-maximal inhibition (IC50) of 10 µM.
Consider Ac-TVFTSWEEYLLW-NH2 [TVFTSWEEYLLW], for which the 50% inhibitory concentration (IC50) is 6.2 µM.
With Ac-TVFTSWEEYLLWV-NH2 [TVFTSWEEYLLWV] the figure was 0.76 µM; with Ac-VFTSWEEYLLWV-NH2 [VFTSWEEYLLWV], 4 µM.
With Ac-VVFTSWQDYLFWV-NH2 [VVFTSWQDYLFWV] the figure was 37.7 µM.
